Substitutions are numbered along the chain they refer to.
Experiments:
Assay in all cases: Whole-cell binding assay, competition with 125I-GIP1-42
Set-up in all cases: acylated tirzepatide to the full-length or modified; Flag; expressed in transfected cells
GIPR [1] = molecular target: T1, GIPR (Homo sapiens, UniProt P48546, Y141A); settings: GIPR Y141A, CHO-K1
T1 sequence (P48546 22-466 Y141A): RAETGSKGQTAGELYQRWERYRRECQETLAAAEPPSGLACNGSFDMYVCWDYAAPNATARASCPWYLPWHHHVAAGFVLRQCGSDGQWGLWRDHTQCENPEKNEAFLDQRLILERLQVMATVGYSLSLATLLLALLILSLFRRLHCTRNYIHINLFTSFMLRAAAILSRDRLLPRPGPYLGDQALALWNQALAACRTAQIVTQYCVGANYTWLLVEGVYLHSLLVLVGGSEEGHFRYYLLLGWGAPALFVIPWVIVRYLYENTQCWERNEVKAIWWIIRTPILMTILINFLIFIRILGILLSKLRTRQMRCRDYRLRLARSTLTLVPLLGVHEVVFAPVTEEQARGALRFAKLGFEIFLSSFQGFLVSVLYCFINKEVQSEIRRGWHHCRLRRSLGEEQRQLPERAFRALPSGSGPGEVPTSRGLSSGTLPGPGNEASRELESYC
In short: (§1)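 Transiently transfected CHO-K1 cells expressing WT or mutant GIPR were washed in F-12 with 0.1% BSA or 0.1% casein and 33 mM HEPES, then incubated 2 h at 37 °C. After ice-cold PBS washes, cells were lysed and bound radioactivity counted (CPM).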

GIPR [2] = molecular target: T2, GIPR (Homo sapiens, UniProt P48546, T345F); settings: GIPR T345F; CHO-K1; read-out: binding pIC50 (converted)
T2 sequence (P48546 22-466 T345F): T1 sequence (P48546 22-466 Y141A) with A120Y, T324F
In short: as §1

GIPR [3] = molecular target: T3, GIPR (Homo sapiens, UniProt P48546, W90A); settings: GIPR W90A, CHO-K1
T3 sequence (P48546 22-466 W90A): T1 sequence (P48546 22-466 Y141A) with W69A, A120Y
In short: as §1

GIPR [4] = molecular target: T4, GIPR (Homo sapiens, UniProt P48546, D191A); settings: GIPR D191A, CHO-K1
T4 sequence (P48546 22-466 D191A): T1 sequence (P48546 22-466 Y141A) with A120Y, D170A
In short: as §1

[5] = read-out: binding pIC50 (converted)

Compound | binding pIC50 (GIPR [1]) | IC50 (GIPR [2]) [nM] | binding pIC50 (GIPR [3]) | binding pIC50 (GIPR [4]) | binding Span (GIPR [1]) [% WT] | IC50 (GIPR [1]; [5]) [nM] | binding Span (GIPR [3]) [% WT] | IC50 (GIPR [3]; [5]) [nM] | binding Span (GIPR [4]) [% WT] | IC50 (GIPR [4]; [5]) [nM]
CC[C@H](C)[C@H](NC(=O)[C@H](CC(C)C)NC(=O)[C@H](Cc1c[nH]c2ccccc12)NC(=O)[C@H](CCC(N)=O)NC(=O)[C@@H](NC(=O)[C@H](Cc1ccccc1)NC(=O)[C@H](C)NC(=O)[C@H](CCCCNC(=O)COCCOCCNC(=O)COCCOCCNC(=O)CC[C@H](NC(=O)CCCCCCCCCCCCCCCCCCC(=O)O)C(=O)O)NC(=O)[C@H](CCC(N)=O)NC(=O)[C@H](C)NC(=O)[C@@H](NC(=O)[C@H](CCCCN)NC(=O)[C@H](CC(=O)O)NC(=O)[C@H](CC(C)C)NC(=O)C(C)(C)NC(=O)[C@@H](NC(=O)[C@H](CO)NC(=O)[C@H](Cc1ccc(O)cc1)NC(=O)[C@H](CC(=O)O)NC(=O)[C@H](CO)NC(=O)[C@@H](NC(=O)[C@H](Cc1ccccc1)NC(=O)[C@@H](NC(=O)CNC(=O)[C@H](CCC(=O)O)NC(=O)C(C)(C)NC(=O)[C@@H](N)Cc1ccc(O)cc1)[C@@H](C)O)[C@@H](C)O)[C@@H](C)CC)[C@@H](C)CC)C(C)C)C(=O)N[C@@H](C)C(=O)NCC(=O)NCC(=O)N1CCC[C@H]1C(=O)N[C@@H](CO)C(=O)N[C@@H](CO)C(=O)NCC(=O)N[C@@H](C)C(=O)N1CCC[C@H]1C(=O)N1CCC[C@H]1C(=O)N1CCC[C@H]1C(=O)N[C@@H](CO)C(N)=O [Tirzepatide] | N.B. | 129 | N.B. | N.B. |  |  |  |  |  | 
CCCCCCCCCCCCCCCC(=O)N[C@@H](CCC(=O)NCCCC[C@H](NC(=O)[C@H](CC(=O)O)NC(=O)[C@H](CO)NC(=O)[C@@H](NC(=O)[C@H](Cc1ccccc1)NC(=O)[C@@H](NC(=O)CNC(=O)[C@H](CCC(N)=O)NC(=O)C(C)(C)NC(=O)[C@@H](N)Cc1c[nH]cn1)[C@@H](C)O)[C@@H](C)O)C(=O)N[C@@H](CO)C(=O)N[C@@H](CCCCN)C(=O)N[C@@H](Cc1ccc(O)cc1)C(=O)N[C@@H](CC(C)C)C(=O)N[C@@H](CC(=O)O)C(=O)N[C@@H](CCC(=O)O)C(=O)N[C@@H](CCCNC(=N)N)C(=O)N[C@@H](C)C(=O)N[C@@H](C)C(=O)N[C@@H](CCC(N)=O)C(=O)N[C@@H](CC(=O)O)C(=O)N[C@@H](Cc1ccccc1)C(=O)N[C@H](C(=O)N[C@@H](CCC(N)=O)C(=O)N[C@@H](Cc1c[nH]c2ccccc12)C(=O)N[C@@H](CC(C)C)C(=O)N[C@@H](CC(C)C)C(=O)N[C@@H](CC(=O)O)C(=O)NCC(=O)NCC(=O)N1CCC[C@H]1C(=O)N[C@@H](CO)C(=O)N[C@@H](CO)C(=O)NCC(=O)N[C@@H](C)C(=O)N1CCC[C@H]1C(=O)N1CCC[C@H]1C(=O)N1CCC[C@H]1C(=O)N[C@@H](CO)C(N)=O)C(C)C)C(=O)O [Peptide 20] |  | 24 |  |  | 14.88 ± 1.95 | 2.4 | 3.87 ± 1.12 | 2.69 | 12.29 ± 1.02 | 9.12

From paper PMC8881610 (Nature Communications, 2022)
